The subject of one assay is T-ALL. Conditions: T-ALL animal model; cited from earlier work.
The test system of another assay is medulloblastoma. Conditions: cited from earlier work.
For assay [1], the system named is Ras-transformed fibroblasts. Conditions: cited from earlier work.
For assay [2], the system named is tumor cell lines that overexpressed NOTCH3. As to conditions: tumor cell lines that overexpressed NOTCH3, not those with minimal NOTCH3 expression; cited from earlier work.
Assay [3] has as its system melanoma and Kaposi sarcoma. Conditions: cell lines and/or xenografts in mice from melanoma and Kaposi sarcoma; cited from earlier work.
The subject of assay [4] is pancreatic tumors with high NOTCH3 gene expression. Nature of the assay: In vivo xenograft assay, panel of pancreatic tumors with high NOTCH3 gene expression. Also on record: species or system NOD-SCID mice. As to conditions: treatment with OMP-59R5 and gemcitabine; NOTCH3 cut-off value of 500. The procedure:
(§1) 20,000 OMP-PN8 tumor cells were injected into NOD-SCID mice. Tumors were allowed to grow 22 days until they had reached an average volume of 125 mm^3. […] Antibodies were dosed every other week at 40 mg/kg. Gemcitabine was dosed at 20 mg/kg weekly.

The subject of assay [5] is UM-T1 breast (NOTCH3 high expressing) tumor cells. Nature of the assay: In vivo xenograft assay, UM-T1 breast tumor. As to conditions: FIG. 1E. Also on record: species or system NOD-SCID mice. The procedure: Tumors were allowed to grow 28 days until they had reached an average volume of 120 mm^3. […] Antibodies were dosed weekly at 20 mg/kg. Taxol was dosed at 10 mg/kg weekly.

Assay [6] concerns UM-PE13 breast (NOTCH3 high expressing) tumor cells. Nature of the assay: In vivo xenograft assay, UM-PE13 breast tumor. Also on record: species or system NOD-SCID mice. Conditions: FIG. 1D. As for the experimental part:
(§2) Antibodies were dosed weekly at 20 mg/kg. Taxol was dosed at 10 mg/kg weekly.

In assay [7] the test system is OMP-Lu40 lung (NOTCH3 low expressing) tumor cells. Nature of the assay: In vivo xenograft assay, OMP-Lu40 lung tumor. The arrangement: species or system NOD-SCID mice. As to conditions: in combination with taxol; antibody 20 mg/kg weekly, taxol 10 mg/kg weekly; FIG. 1F. The procedure: as §2
Assay [8] deals with breast or lung tumors with high NOTCH3 gene expression. The experiment in a line: In vivo xenograft assay, panel of breast or lung tumors with high NOTCH3 gene expression. The arrangement: species or system NOD-SCID mice. As to conditions: OMP-59R5 in combination with a chemotherapeutic agent (taxol); NOTCH3 cut-off value of 500. As for the experimental part: as §2
The test system of assay [9] is OMP-Lu53 lung (NOTCH3 high expressing) tumor cells. The experiment in a line: In vivo xenograft assay, OMP-Lu53 lung tumor. Also on record: species or system NOD-SCID mice. Conditions: in combination with taxol; antibody 40 mg/kg every other week, taxol 10 mg/kg weekly; FIG. 1G. As for the experimental part: Antibodies were dosed every other week at 40 mg/kg. Taxol was dosed at 10 mg/kg weekly.

The next assay concerns OMP-PN8 tumor cells. The experiment in a line: In vivo xenograft assay, OMP-PN8 pancreatic tumor. Also on record: species or system NOD-SCID mice. As for the experimental part: as §1
Tumors were allowed to grow 26 days until they had reached an average volume of 110 mm^3. Tumor bearing mice were randomized into 3 groups (n=9 mice per group) and treated with control antibody, gemcitabine, plus ABRAXANE™ (albumin bound paclitaxel), or the combination of OMP-59R5 anti-NOTCH2/3 antibody and gemcitabine plus ABRAXANE™ OMP-59R5 was dosed every other week at 40 mg/kg. Gemcitabine was dosed at 10 mg/kg weekly and ABRAXANE™ at 30 mg/kg weekly. […] The top and bottom graphs show data obtained from the same experiment on different scales.

A further assay has as its system OMP-PN11 tumor cells. Nature of the assay: In vivo xenograft assay, OMP-PN11 pancreatic tumor. The arrangement: species or system NOD-SCID mice. Conditions: FIG. 1C. As for the experimental part:
50,000 OMP-PN11 tumor cells were injected into NOD-SCID mice. Tumors were allowed to grow 21 days until they had reached an average volume of 120 mm^3. […] Antibodies were dosed every other week at 40 mg/kg. Gemcitabine was dosed at 20 mg/kg weekly.

The subject of assay [10] is OMP-PN17 pancreatic tumor. Nature of the assay: In vivo xenograft assay, OMP-PN17 pancreatic tumor. Also on record: species or system NOD-SCID mice. As to conditions: FIG. 1B. The procedure:
as §1
The ability of anti-NOTCH2/3 OMP-59R5 antibody to inhibit the in vivo growth of OMP-PN17 pancreatic tumor was determined using substantially identical methods.

The test system of a further assay is intestinal adenomas. As to conditions: intestinal adenomas in Apc−/− (min) mice; cited from earlier work.
Where [11] appears, read: as a single agent, 20 mg/kg weekly.
The mark [12] stands for this setting: in combination with taxol, antibody 20 mg/kg weekly, taxol 10 mg/kg weekly.

Entries after “also recorded” stand apart in the source; their conditions may differ. Where a SMILES comes first, the peptide text is derived from it. [ ]: non-standard residue; d: D form. The star is where a group is joined. Nle = CCCC[C@H](N)C(=O)O; Cbz = O=C(OCc1ccccc1)*

On to `C[C@H](NC(=O)Cc1cc(F)cc(F)c1)C(=O)N[C@H](C(=O)OC(C)(C)C)c1ccccc1` [DAPT, N-[N-(3,5-difluorophenacetyl)-L-alanyl]-S-phenylglycine t-butyl ester], for which the “Cell cycle arrest and apoptosis” value in the assay with T-ALL is “induced G0-G1 cell cycle arrest and apoptosis”. The Medulloblastoma growth result in the assay with medulloblastoma was “marked reduction”.
Turning to `CCC(C)C(NC(=O)OCc1ccccc1)C(=O)NC(C=O)CC(C)C` (stereo not drawn) [IL-X, cbz-IL-CHO] (Cbz-Ile-Leu-aldehyde; configuration not given here), the Antineoplastic activity result in [1] is “NOTCH1-dependent antineoplastic activity”.
As for `CCCC[C@@H](C=O)NC(=O)[C@H](CC(C)C)NC(=O)[C@H](CC(C)C)NC(=O)OCc1ccccc1` [z-Leu-leu-Nle-CHO] (Cbz-Leu-Leu-[Nle]-aldehyde), in [2], the “Cell proliferation and apoptosis” value was “suppression of cell proliferation and induction of apoptosis”. In addition, the Tumor growth result in assay [3] was “suppress tumor growth”.
Regarding “OMP-59R5 + gemcitabine: combination treatment with OMP-59R5 anti-NOTCH2/3 antibody and gemcitabine”, the “Pancreatic tumors with high NOTCH3 gene expression responsive in vivo” value in [4] is on record as 9 out of the 10.
“OMP-59R5: 59R5 IgG2 anti-NOTCH2/3 antibody, heavy and light chain of SEQ ID NO:30 and SEQ ID NO:33; ATCC PTA-10170”: the UM-T1 tumor growth entry in assay [5] (setting [11]) and in [5] (setting [12]) was “no effect” in each case. Also, the UM-PE13 tumor growth result in assay [6] (setting [11]) and in [6] (setting [12]) was “strongly inhibited” in each case. The OMP-Lu40 tumor growth result in assay [7] is “strongly inhibited”. Also, in assay [8], the “Breast or lung tumors with high NOTCH3 gene expression responsive” value is 5 out of 14. In assay [9], the OMP-Lu53 tumor growth entry is recorded as “no effect”. For the same compound, the OMP-PN8 tumor growth entry in the assay on OMP-PN8 tumor cells (as a single agent, 40 mg/kg every other week, FIG. 1A) is on record as “strongly inhibited”; with OMP-PN8 tumor cells (in combination with gemcitabine plus ABRAXANE, OMP-59R5 40 mg/kg every other week, gemcitabine 10 mg/kg weekly, ABRAXANE 30 mg/kg weekly, FIG. 9), “strongly inhibited; also recorded: active”; in the assay with OMP-PN8 tumor cells (in combination with gemcitabine, antibody 40 mg/kg every other week, gemcitabine 20 mg/kg weekly, FIG. 1A), “strongly inhibited”. In addition, the “Activity on OMP-PN8 tumor growth compared with gemcitabine plus ABRAXANE alone” value in the assay with OMP-PN8 tumor cells (in combination with gemcitabine plus ABRAXANE, FIG. 9) is “more active”. Also, the OMP-PN11 tumor growth result is listed as “no effect” in the assay on OMP-PN11 tumor cells (as a single agent, 40 mg/kg every other week) and “no effect” with OMP-PN11 tumor cells (in combination with gemcitabine, antibody 40 mg/kg every other week, gemcitabine 20 mg/kg weekly). Besides, the OMP-PN17 tumor growth result in assay [10] (as a single agent) and in [10] (in combination with gemcitabine) was “strongly inhibited” each time.
Consider dibenzazepine, for which the “Epithelial cell proliferation and goblet cell differentiation” value in the assay on intestinal adenomas is “inhibit epithelial cell proliferation and induce goblet cell differentiation”.

(Values after patent publication US20160030561A1, “Methods of Treating Pancreatic Cancer” (ONCOMED PHARMACEUTICALS, INC., priority 2013, published 2016).)
